Data: PubChem BioAssay (NCI)
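A five-concentration, 48-hour dose response in 96-well plates underlies each endpoint, interpolated linearly between surrounding concentrations. GI50: concentration for 50% inhibition of growth. TGI is the concentration that stops growth completely.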

Experiments:
Test in all cases: NCI tumour cell line growth inhibition, 48 h
[1] = system: 786-0 renal
[2] = system: A498 renal
[3] = system: A549 NSCLC
[4] = system: ACHN renal
[5] = system: BT-549 breast
[6] = system: CAKI-1 renal
[7] = system: CCRF-CEM leukemia
[8] = system: COLO 205 colon
[9] = system: DU-145 prostate
[10] = system: EKVX NSCLC
[11] = system: HCC-2998 colon
[12] = system: HCT-116 colon
[13] = system: HCT-15 colon
[14] = system: HL-60(TB) leukemia
[15] = system: HOP-62 NSCLC
[16] = system: HOP-92 NSCLC
[17] = system: HS 578T breast
[18] = system: HT29 colon
[19] = system: IGROV1 ovarian
[20] = system: K-562 leukemia
[21] = system: KM12 colon
[22] = system: LOX IMVI melanoma
[23] = system: M14 melanoma
[24] = system: MALME-3M melanoma
[25] = system: MCF7 breast
[26] = system: MDA-MB-231 breast
[27] = system: MDA-MB-435
[28] = system: MDA-MB-468 breast
[29] = system: MOLT-4 leukemia
[30] = system: NCI-H226 lung
[31] = system: NCI-H23 lung
[32] = system: NCI-H460 lung
[33] = system: NCI-H522 lung
[34] = system: OVCAR-3 ovarian
[35] = system: OVCAR-4 ovarian
[36] = system: OVCAR-5 ovarian
[37] = system: OVCAR-8 ovarian
[38] = system: PC-3 prostate
[39] = system: RPMI-8226 leukemia
[40] = system: RXF 393 renal
[41] = system: SF-268 CNS
[42] = system: SF-295 CNS
[43] = system: SF-539 CNS
[44] = system: SK-MEL-2 melanoma
[45] = system: SK-MEL-28 melanoma
[46] = system: SK-MEL-5 melanoma
[47] = system: SK-OV-3 ovarian
[48] = system: SN12C renal
[49] = system: SNB-19 CNS
[50] = system: SNB-75 CNS
[51] = system: SR leukemia
[52] = system: SW-620 colon
[53] = system: T-47D breast
[54] = system: TK-10 renal
[55] = system: U251 CNS
[56] = system: UACC-257 melanoma
[57] = system: UACC-62 melanoma
[58] = system: UO-31 renal

With CC(=O)Nc1ccc(-c2cn(-c3cccc(C(=O)Nc4cc(C(F)(F)F)cc(C(F)(F)F)c4)c3)nn2)cn1 the GI50 [1] was 3.41 µM, the TGI [1] was 12 µM and the GI50 [2] was 25.4 µM. It also gave a TGI [2] of 42.1 µM, a GI50 [3] of 4.54 µM and a TGI [3] of 16.3 µM. It also gave a GI50 [4] of 11.1 µM, a TGI [4] of 37.5 µM and a GI50 [5] of 3.37 µM. It also gave a TGI [5] of 8.51 µM, a GI50 [6] of 17.3 µM and a TGI [6] of 45.1 µM. It also gave a GI50 [7] of 2.4 µM, a TGI [7] of 6.76 µM and a GI50 [8] of 7.14 µM. For the same compound, the TGI [8] was 23.7 µM, the GI50 [9] was 10.4 µM and the TGI [9] was 29.5 µM. The GI50 [10] was 11.2 µM, the TGI [10] was 36.1 µM and the GI50 [11] was 14 µM. For the same compound, the TGI [11] was 34.3 µM, the GI50 [12] was 5.78 µM and the TGI [12] was 27.7 µM. For the same compound, the GI50 [13] was 10.9 µM, the TGI [13] was 33.1 µM and the GI50 [14] was 1.23 µM. The TGI [14] was 10.9 µM, the GI50 [15] was 8.56 µM and the TGI [15] was 22.5 µM. For the same compound, the GI50 [16] was 2.7 µM, the TGI [16] was 8.6 µM and the GI50 [17] was 6.17 µM. The TGI [17] was 48.9 µM, the GI50 [18] was 3.24 µM and the TGI [18] was 12.9 µM. For the same compound, the GI50 [19] was 16.4 µM, the TGI [19] was 35.3 µM and the GI50 [20] was 0.154 µM. The TGI [20] was 10.5 µM, the GI50 [21] was 0.417 µM and the TGI [21] was 12.7 µM. It also gave a GI50 [22] of 4.53 µM, a TGI [22] of 16.3 µM and a GI50 [23] of 4.39 µM. It also gave a TGI [23] of 19.9 µM, a GI50 [24] of 3.26 µM and a TGI [24] of 12.6 µM. The GI50 [25] was 4.68 µM, the TGI [25] was 21.8 µM and the GI50 [26] was 7.51 µM. It also gave a TGI [26] of 25.1 µM, a GI50 [27] of 11.7 µM and a TGI [27] of 28.1 µM. The GI50 [28] was 3.46 µM, the TGI [28] was 16.2 µM and the GI50 [29] was 1.94 µM. For the same compound, the TGI [29] was 6.12 µM, the GI50 [30] was 13.8 µM and the TGI [30] was 30.1 µM. For the same compound, the GI50 [31] was 14.2 µM, the TGI [31] was 33.5 µM and the GI50 [32] was 4.2 µM. It also gave a TGI [32] of 15.2 µM, a GI50 [33] of 12.3 µM and a TGI [33] of 30.8 µM. It also gave a GI50 [34] of 7.7 µM, a TGI [34] of 21.2 µM and a GI50 [35] of 11.9 µM. It also gave a TGI [35] of 31.7 µM, a GI50 [36] of 18.7 µM and a TGI [36] of 38.9 µM. It also gave a GI50 [37] of 8.26 µM, a TGI [37] of 24.4 µM and a GI50 [38] of 3.4 µM. The TGI [38] was 10.8 µM, the GI50 [39] was 3.46 µM and the TGI [39] was 15 µM. The GI50 [40] was 11.2 µM, the TGI [40] was 26.4 µM and the GI50 [41] was 21 µM. It also gave a TGI [41] of 64.7 µM, a GI50 [42] of 14.2 µM and a TGI [42] of 37.3 µM. The GI50 [43] was 10 µM, the TGI [43] was 24.8 µM and the GI50 [44] was 13.4 µM. The TGI [44] was 28.1 µM, the GI50 [45] was 12.9 µM and the TGI [45] was 29.3 µM. It also gave a GI50 [46] of 16.4 µM, a TGI [46] of 33.2 µM and a GI50 [47] of 13.5 µM. It also gave a TGI [47] of 34.1 µM, a GI50 [48] of 11 µM and a TGI [48] of 28.1 µM. For the same compound, the GI50 [49] was 19.9 µM, the TGI [49] was 50.2 µM and the GI50 [50] was 5.84 µM. The TGI [50] was 28.4 µM, the GI50 [51] was 1.89 µM and the TGI [51] was 5.18 µM. The GI50 [52] was 7.85 µM, the TGI [52] was 24.1 µM and the GI50 [53] was 19.1 µM. For the same compound, the TGI [53] was 91.6 µM, the GI50 [54] was 26 µM and the TGI [54] was 49.3 µM. It also gave a GI50 [55] of 3.85 µM, a TGI [55] of 13.5 µM and a GI50 [56] of 12.9 µM. It also gave a TGI [56] of 36 µM, a GI50 [57] of 13.5 µM and a TGI [57] of 29.8 µM. The GI50 [58] was 19.5 µM and the TGI [58] was 37.2 µM.
